Assay results as given in patent US10463690B2, “Method and compositions for treating cancerous tumors” (priority 2016, dated 2019).

Experiments:
[1] = placed on rats in a 60% of the body 3rd degree burn; cited from earlier work
[2] = system: tumor; conditions: animal experiments; cited from earlier work
[3] = type: in vivo, Mice (SK1IPYMT 4913×SK1FVB)
Description: The purpose was to see how and where the test product spread throughout the body. Mice were euthanized so that internal cavity could be examined. Organs were cut in half for inspection of the extent of saturation.

In the case of `[O][Cl+][O-]` [ClO2, Chlorine dioxide], the toxicity [1] is given as “no toxicity was indicated”.

For `NCCCC(N)(C(=O)O)C(F)F` (stereo not shown) [DFMO, difuoromethylornithine], the “effect on tumor growth” value [2] is listed as “reduced tumor growth”.

For `CN(C)c1ccc2nc3ccc(=[N+](C)C)cc-3sc2c1` [methylene blue, Methylene blue], the “distribution of dye after injection into kidney” value ([3]; kidney injection) was “The entire kidney got saturated and the dye got into the urine but did not spread throughout the body” and the “distribution of dye after injection into liver” value ([3]; liver injection) was “The dye did not spread past the injection site in the liver”.
